Where “and” joins values, the source holds several entries; their conditions need not be identical. Identical values can stand only once.
Key:
[1] = system: double-stranded DNA (26ds); experiment: Spectrofluorimetric titration with 26ds DNA; type: binding; details: for Apparent association constant Ka (26ds): ligand 1 μM, K-cacodylate pH 7.4, 60 mM K+, 25°C; for Hill constant h (26ds): one-site saturation binding Hill slope model
Description: To characterize the binding of IQc to DNA structures, spectrofluorimetric titration assays were performed with the non-substituted (2a), mono-alkyldiamine (2d) and di-alkyldiamine (3e) derivatives using un-labelled KRAS21R G4 and 26ds-DNA. […] Their fluorescence intensity was proportional to concentration up to 10 μM. […] The fluorescence titration data (Figure 4) was fitted to the Scatchard model[25] (Figure 4, insets). […] Scatchard plots of 2d and 3e (Figure 4b–c, insets) are all concave-down nonlinear curves, which may denote different positive cooperative binding sites in G4, with more than one equivalent and non-independent binding sites. […] Therefore, association constants for 2d and 3e were obtained from the one-site saturation binding Hill slope model (Figure 4b–c). These are apparent binding constants, i.e. they are macroscopic Ka which reflect the total binding.
Figure 4 Fluorescence data of (a) 2a, (b) 2d, and (c) 3e (1 μM) in K-cacodylate buffer (pH 7.4, containing 60 mM K^+) at 25°C, titrated with KRAS21R and HT21 G4s, and 26ds, fitted to the saturation binding equations and Scatchard model (insets).
Fluorescence data were collected with a λex of 290 nm and a λem around 475 nm for 2d and 3e, and a λex of 275 nm and a λem around 460 for 2a. Test compounds were prepared as 1 mM in HPLC-grade water (10% DMSO) stock solutions. The rest of the dilutions were performed using K-cacodylate buffer (pH = 7.4, containing 60 mM K^+). The G4 single-strand oligonucleotide sequences were initially diluted from the storage solution (100 μM) with K-cacodylate, to a stock solution at 25 μM. The titration data were obtained by adding aliquots of previously annealed G4 (heating to 95°C for 10 min, followed by slow cooling to RT) to a solution of the indolo[3,2-c]quinoline ligand (1 μM) in K-cacocylate buffer at 25°C (additional details in Supplementary Information).
Figure S7. Fluorescence titrations of 1 μM indolo[3,2-c]quinoline 2d (1µM) with KRAS21R G4 and 26ds DNA in K-cacodylate buffer pH 7.4, containing 60 mM K+ at 25 °C.
Concentration of DNA increase from the top to the bottom (grey lines) Excitation […]
Figure S8. Fluorescence titrations of 1 μM indolo[3,2-c]quinoline 3e (1µM) with KRAS21R […]
The titration data obtained were used to construct Scatchard plots with the concentration of bound and free ligand (Cb and Cf, respectively). […]
number of moles of ligand bound to 1 mol of G4 (r = Cb/CDNA) were calculated.
Saturation binding isotherms were represented as Scatchard plots, by plotting r/Cf versus r and evaluated according to the model of McGhee and von Hippel. Dissociation constants were determined by fitting the titration experimental data to one-site saturation binding equation or to one-site saturation binding to the Hill slope equation supplied with the GraphPad PRISM software (GraphPad, Version 5.00, San Diego, CA).
Association constants (Ka) were calculated from dissociation constants (Kd). Scatchard lines represented in the Scatchard plots were calculated from the data fitting to the binding equations (x = 0, y = Fmax/Kd; x = Fmax , y = 0; slope = -Ka). […]

[2] = system: ALT (telomerase negative human lung fibroblast); experiment: SRB short-term cytotoxicity assay, ALT; type: cell-based; details: 96 h
Description: Short-term anti-proliferative assays were carried out by two different assays using a panel of human cancer and non-malignant human cell lines. […] The transformed human embryonic kidney cell line HEK293T (wt KRAS) was sensitive to all tested drugs, including TMPyP4, a cationic porphyrin established as a G4 ligand, as well as the anticancer drug 5-fluorouracil (5-FU).
Human cell lines, breast carcinoma (MCF7), lung carcinoma (A549), pancreatic cancer (MIA PaCa2, Panc-1), immortalised telomerase-negative human lung fibroblast (ALT) and normal human lung fibroblast (WI-38), were all purchased from American Type Cell Culture (ATCC). Cell lines were maintained in appropriate medium supplemented with 10% fetal bovine serum (Invitrogen, UK), 2 mM L-glutamine (Invitrogen, Netherlands), and other components as specified by the suppliers. All cell lines were maintained at 37°C, 5% CO2, and routinely passaged. Short-term growth inhibition was measured using the SRB assay as described previously[43] (additional details described in Supplementary Information). […]
Sulforhodamine B (SRB) short-term cytotoxicity assay
Cells were seeded at appropriate densities into the wells of 96 well plates in their corresponding medium and incubated overnight to allow the cells to attach. Subsequently cells were exposed to various concentrations of freshly made solutions of drugs and incubated for 96 h. The cells were subsequently fixed with ice-cold trichloacetic acid (TCA) (10%, w/v) for 30 min and stained with 0.4% SRB dissolved in 1% acetic acid for 15 min.
All incubations were carried out at room temperature except for TCA fixation, which was at 4 °C. […]
After electrophoretic transfer onto nitrocellulose membranes, immunoblots were blocked with 5% milk solution, and next incubated overnight at 4 °C with primary mouse monoclonal antibody reactive to KRAS/p53 (#sc-30/sc-126; Santa Cruz Biotechnology Inc., Santa Cruz, CA, USA). […] Steady-state protein levels were expressed as mean ±SEM from at least three independent experiments.

SMILES | Apparent association constant Ka (26ds) [1] | IC50 [2] [µM] | Hill constant h (26ds) [1]
Cn1cc2c3ccccc3nc-2c2cc(Br)ccc21 [2a, 2-bromo-5-methyl-indolo[3,2-c]quinoline] | 0.8 × 10^6 M^−1 and 0.8/-- × 10^6 M^−1 | 4.75 | 
CCN(CC)CCCNc1ccc2c(c1)c1[nH]c3ccccc3c1c[n+]2C [2d] | 2.8e+06 M⁻¹ | 1.93 | 1.5
CCN(CC)CCCNc1ccc2c(c1)[nH]c1c2c[n+](C)c2ccc(NCCCN(CC)CC)cc12.[Cl-] [3e] | 3.2e+06 M⁻¹ | 7.11 | 2.5

From PMC5382548 (Scientific Reports, 2015)
